How the values were obtained:
Format in all cases: in vivo
[1] = test system: barnyardgrass (Echinochloa crus-galli); assay: Test C preemergence; details: for Plant response rating, Barnyardgrass: scale 0 to 100, 0 no effect, 100 complete control
Method in brief: (§1)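 After treatment with surfactant-containing formulations, either preemergence to seeds in loam-sand soil or postemergence to potted seedlings at 2–18 cm, plants were kept 13–15 d in a greenhouse. Observers then compared them with controls and assigned ratings, 0 signifying no effect and 100 complete control.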

corn (Zea mays) [2] = assay: Test C preemergence; details: for Plant response rating, Corn: scale 0 to 100, 0 no effect, 100 complete control
Method in brief: as §1

[3] = test system: johnsongrass (Sorghum halepense); assay: Test C preemergence; details: for Plant response rating, Johnsongrass: scale 0 to 100, 0 no effect, 100 complete control
Method in brief: as §1

[4] = test system: lambsquarters (Chenopodium album); assay: Test C preemergence; details: for Plant response rating, Lambsquarters: scale 0 to 100, 0 no effect, 100 complete control
Method in brief: as §1

[5] = test system: nutsedge, yellow (yellow nutsedge, Cyperus esculentus); assay: Test C preemergence; details: for Plant response rating, Nutsedge, Yellow: scale 0 to 100, 0 no effect, 100 complete control
Method in brief: as §1

[6] = test system: oilseed rape (Brassica napus); assay: Test C preemergence; details: for Plant response rating, Oilseed Rape: scale 0 to 100, 0 no effect, 100 complete control
Method in brief: as §1

[7] = test system: pigweed (Amaranthus retroflexus); assay: Test C preemergence; details: for Plant response rating, Pigweed: scale 0 to 100, 0 no effect, 100 complete control
Method in brief: as §1

[8] = test system: ragweed (common ragweed, Ambrosia elatior); assay: Test C preemergence; details: for Plant response rating, Ragweed: scale 0 to 100, 0 no effect, 100 complete control
Method in brief: as §1

[9] = test system: waterhemp (common waterhemp, Amaranthus rudis); assay: Test C preemergence; details: for Plant response rating, Waterhemp: scale 0 to 100, 0 no effect, 100 complete control
Method in brief: as §1

Kochia (Kochia scoparia) = assay: Test C postemergence; details: scale 0 to 100, 0 no effect, 100 complete control
Source text: (§2) Seeds of plant species selected from blackgrass (Alopecurus myosuroides), ryegrass, Italian (Italian ryegrass, Lolium multiflorum), wheat (winter wheat, Triticum aestivum), Galium (catchweed bedstraw, Galium aparine), corn (Zea mays), crabgrass, large (large crabgrass, Digitaria sanguinalis), foxtail, giant (giant foxtail, Setaria faberii), johnsongrass (Sorghum halepense), lambsquarters (Chenopodium album), morningglory (Ipomoea coccinea), nutsedge, yellow (yellow nutsedge, Cyperus esculentus), pigweed (Amaranthus retroflexus), ragweed (common ragweed, Ambrosia elatior), soybean (Glycine max), barnyardgrass (Echinochloa crus-galli), oilseed rape (Brassica napus), waterhemp (common waterhemp, Amaranthus rudis) and velvetleaf (Abutilon theophrasti) were planted into a blend of loam soil and sand and treated preemergence with test chemicals formulated in a non-phytotoxic solvent mixture which included a surfactant.
(§3) At the same time, plants selected from these crop and weed species and also Kochia (Kochia scoparia), oat, wild (wild oat, Avena fatua), and chickweed (common chickweed, Stellaria media) were planted in pots containing Sunshine Redi-Earth® planting medium comprising spaghnum peat moss, vermiculite, starter nutrients and dolomitic limestone and treated with postemergence applications of test chemicals formulated in the same manner. Plants ranged in height from 2 to 18 cm (1- to 4-leaf stage) for postemergence treatments. Treated plants and controls were maintained in a greenhouse for 13 to 15 d, after which time all species were compared to controls and visually evaluated. Plant response ratings, summarized in Table C, are based on a scale of 0 to 100 where 0 is no effect and 100 is complete control. A dash (-) response means no test result.

[10] = test system: barnyardgrass (Echinochloa crus-galli); assay: Test C postemergence; details: scale 0 to 100, 0 no effect, 100 complete control
Source text: as §2, §3

corn (Zea mays) [11] = assay: Test C postemergence; details: scale 0 to 100, 0 no effect, 100 complete control
Source text: as §2, §3

[12] = test system: crabgrass, large (large crabgrass, Digitaria sanguinalis); assay: Test C postemergence; details: scale 0 to 100, 0 no effect, 100 complete control
Source text: as §2, §3

[13] = test system: johnsongrass (Sorghum halepense); assay: Test C postemergence; details: scale 0 to 100, 0 no effect, 100 complete control
Source text: as §2, §3

[14] = test system: lambsquarters (Chenopodium album); assay: Test C postemergence; details: scale 0 to 100, 0 no effect, 100 complete control
Source text: as §2, §3

[15] = test system: morningglory (Ipomoea coccinea); assay: Test C postemergence; details: scale 0 to 100, 0 no effect, 100 complete control
Source text: as §2, §3

[16] = test system: nutsedge, yellow (yellow nutsedge, Cyperus esculentus); assay: Test C postemergence; details: scale 0 to 100, 0 no effect, 100 complete control
Source text: as §2, §3

[17] = test system: pigweed (Amaranthus retroflexus); assay: Test C postemergence; details: scale 0 to 100, 0 no effect, 100 complete control
Source text: as §2, §3

[18] = test system: ragweed (common ragweed, Ambrosia elatior); assay: Test C postemergence; details: scale 0 to 100, 0 no effect, 100 complete control
Source text: as §2, §3

soybean (Glycine max) = assay: Test C postemergence; details: scale 0 to 100, 0 no effect, 100 complete control
Source text: as §2, §3

[19] = test system: velvetleaf (Abutilon theophrasti); assay: Test C postemergence; details: scale 0 to 100, 0 no effect, 100 complete control
Source text: as §2, §3

[20] = test system: waterhemp (common waterhemp, Amaranthus rudis); assay: Test C postemergence; details: scale 0 to 100, 0 no effect, 100 complete control
Source text: as §2, §3

[21] = 31 g ai/ha, 0 is no effect, 100 is complete control

In the case of `CN1C[C@H](c2ccc(F)c(F)c2)[C@@H](C(=O)Nc2cccc(F)c2F)C1=O` [Compound 639, (3S,4S)—N-(2,3-difluorophenyl)-4-(3,4-difluorophenyl)-1-methyl-2-oxo-3-pyrrolidinecarboxamide], the “Plant response rating (scale of 0 to 100), Barnyardgrass” value [1, 21] is reported as 90, the “Plant response rating, Barnyardgrass” value ([1]; 62 g ai/ha) is reported as 95 and the “Plant response rating, Barnyardgrass” value ([1]; 125 g ai/ha) is reported as 95. The “Plant response rating, Barnyardgrass” value ([1]; 250 g ai/ha) was 100, the “Plant response rating (scale of 0 to 100), Corn” value (corn (Zea mays) [2]; [21]) was 5 and the “Plant response rating, Corn” value (corn (Zea mays) [2]; 62 g ai/ha) was 40. For the same compound, the “Plant response rating, Corn” value (corn (Zea mays) [2]; 125 g ai/ha) was 80, the “Plant response rating, Corn” value (corn (Zea mays) [2]; 250 g ai/ha) was 85 and the “Plant response rating (scale of 0 to 100), Johnsongrass” value [3, 21] was 20. For the same compound, the “Plant response rating, Johnsongrass” value ([3]; 62 g ai/ha) was 65, the “Plant response rating, Johnsongrass” value ([3]; 125 g ai/ha) was 80 and the “Plant response rating, Johnsongrass” value ([3]; 250 g ai/ha) was 90. For the same compound, the “Plant response rating (scale of 0 to 100), Lambsquarters” value [4, 21] was 20, the “Plant response rating, Lambsquarters” value ([4]; 62 g ai/ha) was 25 and the “Plant response rating, Lambsquarters” value ([4]; 125 g ai/ha) was 40. The “Plant response rating, Lambsquarters” value ([4]; 250 g ai/ha) was 70, the “Plant response rating (scale of 0 to 100), Nutsedge, Yellow” value [5, 21] was 0 and the “Plant response rating, Nutsedge, Yellow” value ([5]; 62 g ai/ha) was 0. The “Plant response rating, Nutsedge, Yellow” value ([5]; 125 g ai/ha) was 0, the “Plant response rating, Nutsedge, Yellow” value ([5]; 250 g ai/ha) was 20 and the “Plant response rating (scale of 0 to 100), Oilseed Rape” value [6, 21] was 0. For the same compound, the “Plant response rating, Oilseed Rape” value ([6]; 62 g ai/ha) was 60, the “Plant response rating, Oilseed Rape” value ([6]; 125 g ai/ha) was 85 and the “Plant response rating, Oilseed Rape” value ([6]; 250 g ai/ha) was 90. The “Plant response rating (scale of 0 to 100), Pigweed” value [7, 21] was 40, the “Plant response rating, Pigweed” value ([7]; 62 g ai/ha) was 55 and the “Plant response rating, Pigweed” value ([7]; 125 g ai/ha) was 65. For the same compound, the “Plant response rating, Pigweed” value ([7]; 250 g ai/ha) was 75, the “Plant response rating (scale of 0 to 100), Ragweed” value [8, 21] was 5 and the “Plant response rating, Ragweed” value ([8]; 62 g ai/ha) was 60. The “Plant response rating, Ragweed” value ([8]; 125 g ai/ha) was 75, the “Plant response rating, Ragweed” value ([8]; 250 g ai/ha) was 80 and the “Plant response rating (scale of 0 to 100), Waterhemp” value [9, 21] was 50. The “Plant response rating, Waterhemp” value ([9]; 62 g ai/ha) was 65, the “Plant response rating, Waterhemp” value ([9]; 125 g ai/ha) was 75 and the “Plant response rating, Waterhemp” value ([9]; 250 g ai/ha) was 80. The “Plant response rating, Kochia” value (Kochia (Kochia scoparia); 31 g ai/ha) was 40, the “Plant response rating, Kochia” value (Kochia (Kochia scoparia); 62 g ai/ha) was 50 and the “Plant response rating, Kochia” value (Kochia (Kochia scoparia); 125 g ai/ha) was 80. For the same compound, the “Plant response rating, Kochia” value (Kochia (Kochia scoparia); 250 g ai/ha) was 85, the “Plant response rating, Barnyardgrass” value ([10]; 31 g ai/ha) was 20 and the “Plant response rating, Barnyardgrass” value ([10]; 62 g ai/ha) was 40. The “Plant response rating, Barnyardgrass” value ([10]; 125 g ai/ha) was 70, the “Plant response rating, Barnyardgrass” value ([10]; 250 g ai/ha) was 85 and the “Plant response rating, Corn” value (corn (Zea mays) [11]; 31 g ai/ha) was 0. For the same compound, the “Plant response rating, Corn” value (corn (Zea mays) [11]; 62 g ai/ha) was 0, the “Plant response rating, Corn” value (corn (Zea mays) [11]; 125 g ai/ha) was 0 and the “Plant response rating, Corn” value (corn (Zea mays) [11]; 250 g ai/ha) was 35. For the same compound, the “Plant response rating, Crabgrass, Large” value ([12]; 31 g ai/ha) was 60, the “Plant response rating, Crabgrass, Large” value ([12]; 62 g ai/ha) was 70 and the “Plant response rating, Crabgrass, Large” value ([12]; 125 g ai/ha) was 70. The “Plant response rating, Crabgrass, Large” value ([12]; 250 g ai/ha) was 80, the “Plant response rating, Johnsongrass” value ([13]; 31 g ai/ha) was 0 and the “Plant response rating, Johnsongrass” value ([13]; 62 g ai/ha) was 0. The “Plant response rating, Johnsongrass” value ([13]; 125 g ai/ha) was 0, the “Plant response rating, Johnsongrass” value ([13]; 250 g ai/ha) was 0 and the “Plant response rating, Lambsquarters” value ([14]; 31 g ai/ha) was 40. For the same compound, the “Plant response rating, Lambsquarters” value ([14]; 62 g ai/ha) was 75, the “Plant response rating, Lambsquarters” value ([14]; 125 g ai/ha) was 65 and the “Plant response rating, Lambsquarters” value ([14]; 250 g ai/ha) was 70. For the same compound, the “Plant response rating, Morningglory” value ([15]; 31 g ai/ha) was 30, the “Plant response rating, Morningglory” value ([15]; 62 g ai/ha) was 25 and the “Plant response rating, Morningglory” value ([15]; 125 g ai/ha) was 60. The “Plant response rating, Morningglory” value ([15]; 250 g ai/ha) was 75, the “Plant response rating, Nutsedge, Yellow” value ([16]; 31 g ai/ha) was 0 and the “Plant response rating, Nutsedge, Yellow” value ([16]; 62 g ai/ha) was 0. For the same compound, the “Plant response rating, Nutsedge, Yellow” value ([16]; 125 g ai/ha) was 0, the “Plant response rating, Nutsedge, Yellow” value ([16]; 250 g ai/ha) was 10 and the “Plant response rating, Pigweed” value ([17]; 31 g ai/ha) was 10. The “Plant response rating, Pigweed” value ([17]; 62 g ai/ha) was 45, the “Plant response rating, Pigweed” value ([17]; 125 g ai/ha) was 40 and the “Plant response rating, Pigweed” value ([17]; 250 g ai/ha) was 45. For the same compound, the “Plant response rating, Ragweed” value ([18]; 31 g ai/ha) was 0, the “Plant response rating, Ragweed” value ([18]; 62 g ai/ha) was 10 and the “Plant response rating, Ragweed” value ([18]; 125 g ai/ha) was 50. The “Plant response rating, Ragweed” value ([18]; 250 g ai/ha) was 65, the “Plant response rating, Soybean” value (soybean (Glycine max); 31 g ai/ha) was 0 and the “Plant response rating, Soybean” value (soybean (Glycine max); 62 g ai/ha) was 10. For the same compound, the “Plant response rating, Soybean” value (soybean (Glycine max); 125 g ai/ha) was 15, the “Plant response rating, Soybean” value (soybean (Glycine max); 250 g ai/ha) was 25 and the “Plant response rating, Velvetleaf” value ([19]; 31 g ai/ha) was 35. The “Plant response rating, Velvetleaf” value ([19]; 62 g ai/ha) was 60, the “Plant response rating, Velvetleaf” value ([19]; 125 g ai/ha) was 50 and the “Plant response rating, Velvetleaf” value ([19]; 250 g ai/ha) was 60. For the same compound, the “Plant response rating, Waterhemp” value ([20]; 31 g ai/ha) was 10, the “Plant response rating, Waterhemp” value ([20]; 62 g ai/ha) was 25 and the “Plant response rating, Waterhemp” value ([20]; 125 g ai/ha) was 30. For the same compound, the “Plant response rating, Waterhemp” value ([20]; 250 g ai/ha) was 25.

From patent US12077503B2, “Substituted cyclic amides and their use as herbicides” (FMC CORPORATION, priority 2015, dated 2024)
